Data published in BigSolDB 2.1.

Cc1c(C(=O)O)cccc1[N+](=O)[O-]
solubility (mole fraction)
Conditions	in 1,4-dioxane	in 2-butanone	in acetone	in acetonitrile	in ethanol	in ethyl acetate	in isopropanol	in methanol	in n-propanol
283.15 K	–	0.0528	0.0601	0.00849	0.0149	0.0312	0.0129	0.0162	0.0111
285.65 K	0.0704	0.0544	0.0614	0.00919	0.0165	0.0325	0.0145	0.018	0.0127
288.15 K	0.0718	0.056	0.0627	0.00993	0.0186	0.0341	0.0164	0.0202	0.0144
290.65 K	0.0734	0.0576	0.0641	0.0107	0.0207	0.0357	0.0184	0.0225	0.0162
293.15 K	0.0749	0.0592	0.0655	0.0117	0.0232	0.0373	0.0206	0.0255	0.0182
295.65 K	0.0764	0.0609	0.0668	0.0127	0.0259	0.039	0.023	0.0286	0.0205
298.15 K	0.0779	0.0626	0.0684	0.0138	0.0286	0.0406	0.0259	0.0319	0.0231
300.65 K	0.0796	0.0645	0.0699	0.0149	0.0317	0.0423	0.0289	0.0354	0.0258
303.15 K	0.0814	0.0664	0.0715	0.0161	0.0351	0.0442	0.0324	0.0392	0.0291
305.65 K	0.0831	0.0683	0.0728	0.0172	0.0388	0.046	0.0362	0.0436	0.0326
308.15 K	0.0847	0.0703	0.0745	0.0186	0.043	0.0478	0.0396	0.0483	0.0365
310.65 K	0.0865	0.0722	0.0761	0.0199	0.0475	0.0499	0.0438	0.0529	0.0404
313.15 K	0.0884	0.0741	0.0777	0.0211	0.0524	0.0518	0.0485	0.0579	0.0455
315.65 K	0.0902	0.0764	0.0793	0.0226	0.0579	0.054	0.0533	0.0634	0.0506
318.15 K	0.0921	0.0786	0.0808	0.0242	0.064	0.056	0.0587	0.0685	0.0556
